In ChEMBL document CHEMBL5360643, “Cyclic Peptides from the Opportunistic Pathogen Basidiobolus meristosporus” (J Nat Prod, 2023):
≈ marks a conversion by molar mass, not a printed value.

Key:
[1] = Cytotoxicity against mouse RAW264.7 cells assessed as reduction in cell viability incubated for 24 hrs by CCK-8 assay; type: toxicity, cell-based
[2] = Cytotoxicity against human HepG2 cells assessed as reduction in cell viability incubated for 24 hrs by CCK-8 assay; type: toxicity, cell-based
[3] = Cytotoxicity against human HEK293T cells assessed as reduction in cell viability incubated for 24 hrs by CCK-8 assay; type: toxicity, cell-based, HEK-293T

| Compound | IC50 at 24 h [1] [µg/mL] | IC50 at 24 h [2] [µg/mL] | IC50 at 24 h [3] [µg/mL] |
| --- | --- | --- | --- |
| CC(C)C[C@H]1NC(=O)[C@H](Cc2ccccc2)NC(=O)[C@H](Cc2c[nH]c3ccccc23)NC(=O)[C@@H](C(C)C)NC(=O)[C@H](C(C)C)NC(=O)[C@@H](C)NC1=O | 7.7 (≈ 10.8 µM) | 125 (≈ 174 µM) | 150 (≈ 210 µM) |
| CC[C@H](C)[C@@H]1NC(=O)[C@H](Cc2ccccc2)NC(=O)[C@@H]2C[C@]3(O)c4ccccc4N[C@H]3N2C(=O)[C@H]([C@@H](C)O)NC(=O)[C@@H](Cc2ccc(O)cc2)NC1=O | 182 (≈ 251 µM) | 110 (≈ 151 µM) | 148 (≈ 203 µM) |
| CC[C@H](C)[C@@H]1NC(=O)[C@H](Cc2ccccc2)NC(=O)[C@H](Cc2c[nH]c3ccccc23)NC(=O)[C@@H]([C@@H](C)O)NC(=O)[C@@H](Cc2ccc(O)cc2)NC1=O | 17.2 (≈ 24.2 µM) | 29.6 (≈ 41.6 µM) | 6 (≈ 8.44 µM) |
| COc1cc([C@@H]2c3cc4c(cc3[C@H](O)[C@H]3COC(=O)[C@H]23)OCO4)cc(OC)c1OC [PODOFILOX] | 61.3 (≈ 148 µM) | 19.6 (≈ 47.3 µM) | 20 (≈ 48.3 µM) |
